Experimental data as given in patent US12358894B2 (priority 2019, dated 2025).

System: pathogens of rice blast
Format: cell-based
Settings: test solution 2000 ppm, 1,000 μl on oatmeal culture medium, 4-mm rice blast disc, 25° C., 6 days; calculated from elongation length of hyphae with vs without treatment

SMILES: COc1nc(-n2cccn2)nc(F)c1C(F)(F)F [Example 1, 6-fluoro-4-methoxy-2-(1-pyrazolyl)-5-(trifluoromethyl)pyrimidine]
- Preventive value: 100
